Test results reported in patent publication US11542313B2, “Incretin analogs and uses thereof” (Eli Lilly and Company, priority 2017, dated 2023).
*1 amine or outer side, *2 acyl side, *3 side chain or, on linkers, in order; H or OH if unused. Where a SMILES comes first, the peptide text is derived from it. Side-chain parts run from the residue outwards. [ ]: non-standard residue; d: D form. The star is where a group is joined. C20 diacid = O=C(O)CCCCCCCCCCCCCCCCCCC(=O)*; γGlu = O=C(O)[C@H](CCC(=O)[*:2])N[*:1]; αMeL = CC(C)C[C@](C)(N)C(=O)O; AEEA = NCCOCCOCC(=O)O; Aib = CC(C)(N)C(=O)O

How the values were obtained:
GLP-1 receptor (GLP-1R) = target: T1, GLP-1 receptor (GLP-1R) (Homo sapiens, UniProt P43220); assay: Radioligand competition binding (SPA), human GLP-1R membranes
T1 construct: expressed in transfected cells; host or cells: HEK293 (membranes)
From the text: (§1) Radioligand competition binding assays are run to determine the equilibrium dissociation constant for exemplary compounds and comparator molecules.
(§2) Competition curves are plotted as the percent specific inhibition (y-axis) versus log concentration of compound (x-axis) and analyzed using a four parameter nonlinear regression fit with variable slope (ABase or Genedata).

[1] = target: T2, human glucagon receptor (GcgR) (Homo sapiens, UniProt P47871); assay: Radioligand competition binding (SPA), human GcgR membranes
T2 construct: expressed in transfected cells; host or cells: HEK293 (membranes)
From the text: as §1, §2

[2] = Pharmacokinetics in male Sprague Dawley rats; settings: for CL/F / Tmax / half-life: male, Sprague-Dawley, rat, plasma, sc, 100 nmol/kg; for AUCINF_D_obs / Cmax/D: single subcutaneous 100 nMol/kg, male Sprague Dawley rats, n = 3
Protocol: The pharmacokinetics of the exemplary analogs are evaluated following a single subcutaneous administration of 100 nM/kg to male Sprague Dawley rats. Blood samples are collected over 120 hours, and resulting individual plasma concentrations are used to calculate pharmacokinetic parameters. Peptide plasma (K3 EDTA) concentrations are determined using a qualified LC/MS method that measured the intact mass of the analog. Each peptide and an analog as an internal standard are extracted from 100% specie specified plasma using methanol with 0.1% formic acid. A Thermo Q-Exactive, High Resolution Instrument, and a Thermo Easy Spray PepMap are combined for LC/MS detection.

[3] = target: T3, human GIP receptor (GIPR) (Homo sapiens, UniProt P48546); assay: Radioligand competition binding (SPA), human GIPR membranes
T3 construct: expressed in transfected cells; host or cells: HEK293 (membranes)
T3 sequence (P48546 22-466): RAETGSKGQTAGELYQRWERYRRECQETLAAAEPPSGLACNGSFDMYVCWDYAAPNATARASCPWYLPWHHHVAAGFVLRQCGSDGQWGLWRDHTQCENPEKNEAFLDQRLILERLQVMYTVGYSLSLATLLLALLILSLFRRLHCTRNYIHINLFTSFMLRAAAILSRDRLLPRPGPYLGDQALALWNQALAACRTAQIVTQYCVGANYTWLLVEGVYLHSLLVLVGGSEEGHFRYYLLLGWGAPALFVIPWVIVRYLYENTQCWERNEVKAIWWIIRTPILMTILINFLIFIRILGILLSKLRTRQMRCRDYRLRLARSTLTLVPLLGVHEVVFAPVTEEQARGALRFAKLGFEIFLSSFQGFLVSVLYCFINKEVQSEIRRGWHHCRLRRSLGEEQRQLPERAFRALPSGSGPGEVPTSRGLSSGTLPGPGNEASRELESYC
From the text: as §1, §2

T1 sequence (P43220 24-463): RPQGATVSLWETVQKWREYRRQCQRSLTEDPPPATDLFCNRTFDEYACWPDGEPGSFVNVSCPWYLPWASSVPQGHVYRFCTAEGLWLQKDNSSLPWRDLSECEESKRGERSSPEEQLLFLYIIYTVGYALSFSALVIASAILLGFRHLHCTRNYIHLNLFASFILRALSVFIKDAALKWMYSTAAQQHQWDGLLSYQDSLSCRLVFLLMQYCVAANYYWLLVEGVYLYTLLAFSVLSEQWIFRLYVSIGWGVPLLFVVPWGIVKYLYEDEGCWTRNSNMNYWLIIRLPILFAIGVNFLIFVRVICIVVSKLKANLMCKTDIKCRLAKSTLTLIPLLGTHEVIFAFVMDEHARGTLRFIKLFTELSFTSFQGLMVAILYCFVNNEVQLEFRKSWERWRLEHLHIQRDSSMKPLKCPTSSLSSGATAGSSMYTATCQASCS
T2 sequence (P47871 26-477): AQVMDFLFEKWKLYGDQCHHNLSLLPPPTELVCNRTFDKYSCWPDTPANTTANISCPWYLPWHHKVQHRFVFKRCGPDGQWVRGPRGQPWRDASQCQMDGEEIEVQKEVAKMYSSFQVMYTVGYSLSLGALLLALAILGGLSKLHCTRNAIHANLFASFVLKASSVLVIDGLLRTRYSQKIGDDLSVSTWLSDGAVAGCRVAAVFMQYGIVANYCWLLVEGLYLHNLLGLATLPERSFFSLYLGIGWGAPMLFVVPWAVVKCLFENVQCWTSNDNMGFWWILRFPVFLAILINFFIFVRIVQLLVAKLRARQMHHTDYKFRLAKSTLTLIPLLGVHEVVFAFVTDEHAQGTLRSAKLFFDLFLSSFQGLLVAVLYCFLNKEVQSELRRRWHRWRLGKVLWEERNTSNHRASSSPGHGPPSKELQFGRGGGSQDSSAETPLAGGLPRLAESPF

Structure (SMILES)	Ki (GLP-1 receptor (GLP-1R)) [nM]	Ki [1] [nM]	CL/F [2] [mL/h/kg]	Tmax [2] [h]	half-life [2] [h]	AUCINF_D_obs [2] [hr*kg*nmol/L/nmol]	Cmax/D [2] [kg*nmol/L/nmol]	Ki [3] [nM]
CC[C@H](C)[C@H](NC(=O)[C@H](Cc1ccccc1)NC(=O)[C@H](C)NC(=O)C(C)(C)NC(=O)[C@H](CCC(N)=O)NC(=O)[C@H](C)NC(=O)[C@H](CCCCNC(=O)COCCOCCNC(=O)COCCOCCNC(=O)CC[C@H](NC(=O)CCCCCCCCCCCCCCCCCCC(=O)O)C(=O)O)NC(=O)[C@H](CCCCN)NC(=O)[C@H](CC(=O)O)NC(=O)[C@H](CC(C)C)NC(=O)[C@H](CC(C)C)NC(=O)[C@@H](NC(=O)[C@H](CO)NC(=O)[C@H](Cc1ccc(O)cc1)NC(=O)[C@H](CC(=O)O)NC(=O)[C@H](CO)NC(=O)[C@@H](NC(=O)[C@H](Cc1ccccc1)NC(=O)[C@@H](NC(=O)CNC(=O)[C@H](CCC(N)=O)NC(=O)C(C)(C)NC(=O)[C@@H](N)Cc1ccc(O)cc1)[C@@H](C)O)[C@@H](C)O)[C@@H](C)CC)C(=O)N[C@@H](CCC(=O)O)C(=O)N[C@@H](Cc1ccc(O)cc1)C(=O)N[C@@H](CC(C)C)C(=O)N[C@@H](CC(C)C)C(=O)N[C@@H](CCC(=O)O)C(=O)NCC(=O)NCC(=O)N1CCC[C@H]1C(=O)N[C@@H](CO)C(=O)N[C@@H](CO)C(=O)NCC(=O)N[C@@H](C)C(=O)N1CCC[C@H]1C(=O)N1CCC[C@H]1C(=O)N1CCC[C@H]1C(=O)N[C@@H](CO)C(N)=O [Example 16]	16.1	11.5	3.6	20	29.1	274.9	3.8	0.106
CC[C@H](C)[C@H](NC(=O)[C@H](Cc1ccccc1)NC(=O)[C@H](C)NC(=O)[C@H](Cc1c[nH]cn1)NC(=O)[C@H](CCC(N)=O)NC(=O)[C@H](C)NC(=O)[C@H](CCCCNC(=O)COCCOCCNC(=O)CC[C@H](NC(=O)CCCCCCCCCCCCCCCCCCC(=O)O)C(=O)O)NC(=O)[C@H](CCCCN)NC(=O)[C@H](CC(=O)O)NC(=O)[C@H](CC(C)C)NC(=O)[C@](C)(CC(C)C)NC(=O)[C@@H](NC(=O)[C@H](CO)NC(=O)[C@H](Cc1ccc(O)cc1)NC(=O)[C@H](CC(=O)O)NC(=O)[C@H](CO)NC(=O)[C@@H](NC(=O)[C@H](Cc1ccccc1)NC(=O)[C@@H](NC(=O)CNC(=O)[C@H](CCC(N)=O)NC(=O)C(C)(C)NC(=O)[C@@H](N)Cc1ccc(O)cc1)[C@@H](C)O)[C@@H](C)O)[C@@H](C)CC)C(=O)N[C@@H](CCC(=O)O)C(=O)N[C@@H](Cc1ccc(O)cc1)C(=O)N[C@@H](CC(C)C)C(=O)N[C@@H](CC(C)C)C(=O)N[C@@H](CCC(=O)O)C(=O)NCC(=O)NCC(=O)N1CCC[C@H]1C(=O)N[C@@H](CO)C(=O)N[C@@H](CO)C(=O)NCC(=O)N[C@@H](C)C(=O)N1CCC[C@H]1C(=O)N1CCC[C@H]1C(=O)N1CCC[C@H]1C(=O)N[C@@H](CO)C(N)=O [Example 10] (H-Y[Aib]QGTFTSDYSI[αMeL]LDKK([AEEA-γGlu-C20 diacid])AQHAFIEYLLEGGPSSGAPPPS-NH2; N-terminus assumed)	12	7.37	4.9	24	23.4	203.5	3.1	0.118
CC[C@H](C)[C@H](NC(=O)[C@H](Cc1ccccc1)NC(=O)[C@H](C)NC(=O)C(C)(C)NC(=O)[C@H](CCC(N)=O)NC(=O)[C@H](C)NC(=O)[C@H](CCCCNC(=O)COCCOCCNC(=O)CC[C@H](NC(=O)CCCCCCCCCCCCCCCCCCC(=O)O)C(=O)O)NC(=O)[C@H](CCCCN)NC(=O)[C@H](CC(=O)O)NC(=O)[C@H](CC(C)C)NC(=O)[C@H](CC(C)C)NC(=O)[C@@H](NC(=O)[C@H](CO)NC(=O)[C@H](Cc1ccc(O)cc1)NC(=O)[C@H](CC(=O)O)NC(=O)[C@H](CO)NC(=O)[C@@H](NC(=O)[C@H](Cc1ccccc1)NC(=O)[C@@H](NC(=O)CNC(=O)[C@H](CCC(N)=O)NC(=O)C(C)(C)NC(=O)[C@@H](N)Cc1ccc(O)cc1)[C@@H](C)O)[C@@H](C)O)[C@@H](C)CC)C(=O)N[C@@H](CCC(=O)O)C(=O)N[C@@H](Cc1ccc(O)cc1)C(=O)N[C@@H](CC(C)C)C(=O)N[C@@H](CC(C)C)C(=O)N[C@@H](CCC(=O)O)C(=O)NCC(=O)NCC(=O)N1CCC[C@H]1C(=O)N[C@@H](CO)C(=O)N[C@@H](CO)C(=O)NCC(=O)N[C@@H](C)C(=O)N1CCC[C@H]1C(=O)N1CCC[C@H]1C(=O)N1CCC[C@H]1C(=O)N[C@@H](CO)C(N)=O [Example 18]	8.06	5.71	3.6	24	34.8	284.3	5.0	0.0835
CC[C@H](C)[C@H](NC(=O)[C@H](Cc1ccccc1)NC(=O)[C@H](C)NC(=O)[C@](C)(CCCCN)NC(=O)[C@H](CCC(N)=O)NC(=O)[C@H](C)NC(=O)[C@H](CCCCNC(=O)COCCOCCNC(=O)COCCOCCNC(=O)CC[C@H](NC(=O)CCCCCCCCCCCCCCCCCCC(=O)O)C(=O)O)NC(=O)[C@H](CCCCN)NC(=O)[C@H](CC(=O)O)NC(=O)[C@H](CC(C)C)NC(=O)[C@](C)(CC(C)C)NC(=O)[C@@H](NC(=O)[C@H](CO)NC(=O)[C@H](Cc1ccc(O)cc1)NC(=O)[C@H](CC(=O)O)NC(=O)[C@H](CO)NC(=O)[C@@H](NC(=O)[C@H](Cc1ccccc1)NC(=O)[C@@H](NC(=O)CNC(=O)[C@H](CCC(N)=O)NC(=O)C(C)(C)NC(=O)[C@@H](N)Cc1ccc(O)cc1)[C@@H](C)O)[C@@H](C)O)[C@@H](C)CC)C(=O)N[C@@H](CCC(=O)O)C(=O)N[C@@H](Cc1ccc(O)cc1)C(=O)N[C@@H](CC(C)C)C(=O)N[C@@H](CC(C)C)C(=O)N[C@@H](CCC(=O)O)C(=O)NCC(=O)NCC(=O)N1CCC[C@H]1C(=O)N[C@@H](CO)C(=O)N[C@@H](CO)C(=O)NCC(=O)N[C@@H](C)C(=O)N1CCC[C@H]1C(=O)N1CCC[C@H]1C(=O)N1CCC[C@H]1C(=O)N[C@@H](CO)C(N)=O [Example 3]	6.06	12	6.9	16	19.2	146	2.5	0.0446
CC[C@H](C)[C@H](NC(=O)[C@H](Cc1ccccc1)NC(=O)[C@H](C)NC(=O)C(C)(C)NC(=O)[C@H](CCC(N)=O)NC(=O)[C@H](C)NC(=O)[C@H](CCCCNC(=O)COCCOCCNC(=O)COCCOCCNC(=O)CC[C@H](NC(=O)CCCCCCCCCCCCCCCCCCC(=O)O)C(=O)O)NC(=O)[C@H](CCCCN)NC(=O)[C@H](CC(=O)O)NC(=O)[C@H](CC(C)C)NC(=O)[C@](C)(CC(C)C)NC(=O)[C@@H](NC(=O)[C@H](CO)NC(=O)[C@H](Cc1ccc(O)cc1)NC(=O)[C@H](CC(=O)O)NC(=O)[C@H](CO)NC(=O)[C@@H](NC(=O)[C@H](Cc1ccccc1)NC(=O)[C@@H](NC(=O)CNC(=O)[C@H](CCC(N)=O)NC(=O)C(C)(C)NC(=O)[C@@H](N)Cc1ccc(O)cc1)[C@@H](C)O)[C@@H](C)O)[C@@H](C)CC)C(=O)N[C@@H](CCC(=O)O)C(=O)N[C@@H](Cc1ccc(O)cc1)C(=O)N[C@@H](CC(C)C)C(=O)N[C@@H](CC(C)C)C(=O)N[C@@H](CCC(=O)O)C(=O)NCC(=O)NCC(=O)N1CCC[C@H]1C(=O)N[C@@H](CO)C(=O)N[C@@H](CO)C(=O)NCC(=O)N[C@@H](C)C(=O)N1CCC[C@H]1C(=O)N1CCC[C@H]1C(=O)N1CCC[C@H]1C(=O)N[C@@H](CO)C(N)=O [Example 11]	9.97	10.8	4.7	20	24.3	215.1	3.7	0.089
CC[C@H](C)[C@H](NC(=O)[C@H](Cc1ccccc1)NC(=O)[C@H](C)NC(=O)[C@H](Cc1c[nH]cn1)NC(=O)[C@H](CCC(N)=O)NC(=O)[C@H](C)NC(=O)[C@H](CCCCNC(=O)COCCOCCNC(=O)COCCOCCNC(=O)CC[C@H](NC(=O)CCCCCCCCCCCCCCCCCCC(=O)O)C(=O)O)NC(=O)[C@H](CCCCN)NC(=O)[C@H](CC(=O)O)NC(=O)[C@H](CC(C)C)NC(=O)[C@](C)(CC(C)C)NC(=O)[C@@H](NC(=O)[C@H](CO)NC(=O)[C@H](Cc1ccc(O)cc1)NC(=O)[C@H](CC(=O)O)NC(=O)[C@H](CO)NC(=O)[C@@H](NC(=O)[C@H](Cc1ccccc1)NC(=O)[C@@H](NC(=O)CNC(=O)[C@H](CCC(N)=O)NC(=O)C(C)(C)NC(=O)[C@@H](N)Cc1ccc(O)cc1)[C@@H](C)O)[C@@H](C)O)[C@@H](C)CC)C(=O)N[C@@H](CCC(=O)O)C(=O)N[C@@H](Cc1ccc(O)cc1)C(=O)N[C@@H](CC(C)C)C(=O)N[C@@H](CC(C)C)C(=O)N[C@@H](CCC(=O)O)C(=O)NCC(=O)NCC(=O)N1CCC[C@H]1C(=O)N[C@@H](CO)C(=O)N[C@@H](CO)C(=O)NCC(=O)N[C@@H](C)C(=O)N1CCC[C@H]1C(=O)N1CCC[C@H]1C(=O)N1CCC[C@H]1C(=O)N[C@@H](CO)C(N)=O [Example 7] (H-Y[Aib]QGTFTSDYSI[αMeL]LDKK([AEEA-AEEA-γGlu-C20 diacid])AQHAFIEYLLEGGPSSGAPPPS-NH2)	21.4	16.3						0.11
